Reference: publication PMC8300810, “Antibacterial Residue Excretion via Urine as an Indicator for Therapeutical Treatment Choice and Farm Waste Treatment” (Antibiotics, 2021)

What was measured:
[1] = Antimicrobial excretion in urine of treated pigs through the withdrawal period, LC-MS/MS
Procedure: Each of these compounds was administered via intramuscular (IM) injection.
A total of 66 previously untreated piglets were procured at treatment onset. Starting at 40 days before administration of the compounds, they were kept on the premises of the Faculty of Veterinary Sciences at the University of Zaragoza (Zaragoza, Spain) and used in tandem for another study. […] From them, 39 were female and 27, male. During acclimatization and withdrawal periods, the piglets were fed ad libitum with a special mixed feed free of antibiotics (ARS Alendi S.A., Huesca, Spain), and water was provided from a separate, controlled water circuit. Piglets were raised in separate pens depending on the antibiotic with which they were administrated.
Urine was collected on different days within the withdrawal period determined by the respective antimicrobial drug manufacturers. It was collected from live pigs via mobilization of the animal and bladder stimulation. At pre-set time intervals, pigs were slaughtered and urine was obtained via bladder puncture; at the same time, urine was gathered from living animals subjected to the same treatment and withdrawal period. Consequently, urine was collected from 1 to 9 pigs on each day of analysis. As animals were bred in batches and slaughtered all along the withdrawal period, the number of sampled animals decreased as the withdrawal period progressed. Samples were kept aliquoted and frozen at −20 °C until analysis.
1.5 mL of urine were spiked with 100 µL of IS spiking solution. 100 µL 0.1M EDTA and 5 mL of purified water were added and mixed. 500 µL were taken and further diluted with 1500 µL of purified water. It was filtered through 0.2 µm directly into HPLC vials.
All urine samples were analysed using a SCIEX Exion LC coupled to a TripleQuad 6500+ triple quadrupole detector equipped with an Acquity UPLC® BEH C18 column (1.7 µm, 2.1 × 100 mm). The mobile phase consisted of eluent A (0.1% formic acid in water) and eluent B (0.1% formic acid in acetonitrile) at a flow rate of 0.4 mL min^−1. […] The injected volume was 5 µL. Positive electrospray ionisation was used, and analytes were detected in MRM mode by monitoring 2 transitions for each compound of interest (Table 3). Regardless of the compound analysed, the technique’s limit of detection (LoD) was 10 ppb.
For each day of the withdrawal period pre-set in this study to evaluate the behaviour of antimicrobials, 1 to 9 samples of urine coming from different animals subjected to the same treatment and withdrawal period were analysed via LC-MS/MS.
The rates of elimination (λz) of antibiotics from urine were determined via regression analysis. The corresponding half-lives of elimination(T1/2) were calculated according to the following equation:
Equation (1): Half-life of elimination where T1/2 is the half-life of elimination and λZ is the rate of elimination. (1) T1/2=Ln (2)/λz

[2] = Concentration in urine compared with muscle of treated pigs; format: in vivo; settings: Figure 4
Text: Urine samples were obtained in parallel with muscle and blood samples gathered for the study performed by Serrano et al.. That study’s aim was to find a suitable matrix for ante mortem tests for the detection of antimicrobial compounds, which would avoid the slaughter of contaminated animals and thus the entrance of antimicrobial compounds into the food chain. The matrix should be characterized via an easy extraction procedure from living animals and a good correlation with the concentration found in muscle. […] These findings agree with those described previously by Seymour et al. for cows: urine samples from treated cows tested positive for the presence of antimicrobial residues even after the end of the withdrawal period set by the manufacturer. Moreover, this issue could also be interpreted as the occurrence of higher levels of antimicrobials in urine compared to other tissues such as muscle.
With the exception of sulfamethoxypyrydazine, concentrations described in urine were much higher than the ones described for muscle.

[3] = cited from earlier work
[4] = both, Landrace × Large White, pig, in vivo

| Compound | total urine elimination [1, 4] | time period required to complete the excretion by urine (in words) ([1]; urine, pigs, estimated from the regression) | concentrations in urine compared to muscle [2] | elimination period in urine [1, 4] | half-life ([1]; both, Landrace × Large White, pig, urine, im) [h] | concentration in urine at the beginning of the withdrawal period (comparison among compounds) ([1]; pig, in vivo) | time period required to complete the excretion by urine (in words) ([1]; pig, in vivo) | fraction of administered antibiotic eliminated in the faeces [3] [%] | fraction of administered antibiotic excreted in urine via glomerular filtration [3] [%] |
| --- | --- | --- | --- | --- | --- | --- | --- | --- | --- |
| CCN1CCN(c2cc3c(cc2F)c(=O)c(C(=O)O)cn3C2CC2)CC1 [Enrofloxacin] | ca. 3 weeks | almost three weeks | much higher | – | – | – | – | – | – |
| CN(C)[C@@H]1C(O)=C(C(N)=O)C(=O)[C@@]2(O)C(O)=C3C(=O)c4c(O)cccc4[C@@](C)(O)[C@H]3[C@H](O)[C@@H]12 [Oxytetracycline] | – | – | much higher | over 2 months | 100 | highest concentrations | more than two months | 40 | 60 |
| COc1ccc(NS(=O)(=O)c2ccc(N)cc2)nn1 [Sulfamethoxypyridazine] | ca. 1 weeks | – | – | – | – | – | – | – | – |
